Values after ≈ are worked out from the molar mass of the structure shown. Values joined by “and” are separate entries in the source; they are usually repeats but may differ in a detail not shown here. Identical values can stand only once. Like-named read-outs stand apart in the source and are kept apart here.
Tests used:
[1] = test system: Aspergillus fumigatus; experiment: Checkerboard microdilution synergy (FIC); type: cell-based; conditions: for MIC: Aspergillus fumigatus; for MIC azole combination: POS in combination with MM:TM
[2] = test system: Rhizopus arrhizus; experiment: MIC100 against filamentous fungi (CLSI M38-A2); type: cell-based; conditions: for polymer efficacy against filamentous fungi, 100%: Clinical isolate
[3] = test system: P. marneffei mold; experiment: MIC by broth microdilution (EUCAST-AST-[…]); type: cell-based; conditions: 1.00×10^5 cells/mL, 35° C.
[4] = test system: Aspergillus terreus; conditions: A. terreus; RPMI 1640 (0.2% Glucose); 1.00×10^5 cells/mL; 35° C.
[5] = test system: Aspergillus fumigatus; experiment: microbe, parasite or virus in culture
[6] = test system: Aspergillus terreus; experiment: microbe, parasite or virus in culture
[7] = test system: Aspergillus spp.; experiment: microbe, parasite or virus in culture
[8] = test system: P. carinii; experiment: Pneumocystis ATP assay (ATP-lite M); type: cell-based, Pneumocystis carinii; conditions: 10 ug/mL
[9] = test system: P. murina; experiment: Pneumocystis ATP assay (ATP-lite M); type: cell-based, Pneumocystis murina; conditions: 10 ug/mL
[10] = MM:TM with posaconazole, isolate CEA10 (Sensitive), […] 10^5 cells/mL
[11] = MM:TM with posaconazole, isolate F11628 (Resistance), […] 10^5 cells/mL
[12] = MM:TM with posaconazole, isolate F16216 (Resistance), […] 10^5 cells/mL

CC[C@@H]([C@H](C)O)n1ncn(-c2ccc(N3CCN(c4ccc(OC[C@@H]5CO[C@@](Cn6cncn6)(c6ccc(F)cc6F)C5)cc4)CC3)cc2)c1=O [Posaconazole, posaconazole]
FICazole ([1]; 08-12-12-13 Cyp51 [TR34/L98H], POS with MM:TM): 1.000
FICazole ([1]; 08-31-08-91 Cyp51 [TR34/L98H], POS with MM:TM, listed as POS): 0.500 and 0.250
FICazole ([1]; 08-36-03-25 Cyp51 [TR34/L98H], POS with MM:TM, listed as POS): 0.500 and 0.474
FICazole ([1]; 12-7505220 Cyp51 [TR34/L98H], POS with MM:TM, listed as POS): 0.240 and 0.263
FICazole ([1]; AF293, POS with MM:TM): 0.21
FICazole ([1]; AF293, POS with MM:TM, listed as POS): 0.25
MIC ([1]; 48 h, CEA10, MM:TM with Posaconazole, single agent, 48 h, read-out: MIC Alone): 0.7 µM
MIC ([1]; 48 h, CEA10, POS as single agent, 35° C.): 0.75 µg/mL
MIC ([1]; 48 h, F11628, POS as single agent, 35° C.): 48 µg/mL and 68.5 µM
MIC ([1]; 48 h, F16216, POS as single agent, 35° C.): 2 µg/mL and 2.85 µM
MIC [1, 10]: 0.5 µg/mL
MIC [1, 11]: 48 µg/mL
MIC [1, 12]: 1.75 µg/mL
MIC Combined ([1]; CEA10, MM:TM with Posaconazole in combination, 48 h): 0.1 µM
MIC azole combination ([1]; CEA10, 48 h, 35° C., listed as POS): 0.13 μg/mL and 0.19 μM
FICazole ([1]; CEA10, POS with MM:TM, listed as POS): 0.173 and 0.250 and 0.200
FICazole ([1]; D5 Cyp51 [G54E], POS with MM:TM, listed as POS): 0.125 and 0.063
FICazole ([1]; D7 Cyp51 [WT], POS with MM:TM): 0.263
MIC azole combination ([1]; F11628, 48 h, 35° C.): 0.13 µM
FICazole ([1]; F11628, POS with MM:TM, listed as POS): 0.002 and 0.001
MIC azole combination ([1]; F16216, 48 h, 35° C.): 2.14 µM
FICazole [1, 10]: 0.200
FICazole [1, 11]: 0.001
FICazole [1, 12]: 0.571
increase in efficacy in the presence of MM:TM ([1]; azole-resistant strain F11628): > 600 fold
polymer efficacy against filamentous fungi, 100% ([2]; R. arrhizus RA1, Nose Tissue): 0.5
polymer efficacy against filamentous fungi, 100% ([2]; R. arrhizus RA2, Tissue Upper Extremity): 0.5
polymer efficacy against filamentous fungi, 100% ([2]; R. arrhizus RA3, Palate Tissue): 0.5
MIC ([2]; Rhizopus arrhizus isolate RA1): 0.5 µg/mL (≈ 0.713 µM)
MIC100 ([2]; Rhizopus arrhizus isolate RA2): 0.5 µg/mL (≈ 0.713 µM)
MIC100 ([2]; Rhizopus arrhizus isolate RA3): 0.5 µg/mL (≈ 0.713 µM)
MIC ([3]; RPMI 1640 (0.2% Glucose)): 0.5 µg/mL (≈ 0.713 µM)
MIC ([3]; Talaromyces marneffei, RPMI 1640 (2% Glucose), read-out: MIC): 0.5 µg/mL (≈ 0.713 µM)
MIC [4]: 1.0 µg/mL (≈ 1.43 µM)
MIC ([5]; 48 h, A. fumigatus AF293, visually, 1 × 10^5 cells/mL, 35° C.): 2 µg/mL and 2.9 µM
MIC ([5]; 48 h, A. fumigatus CEA10, visually, 1 × 10^5 cells/mL, 35° C.): 0.5 µg/mL and 0.7 µM
MIC ([5]; 48 h, A. fumigatus F11628, visually, 1 × 10^5 cells/mL, 35° C.): > 32 µg/mL and > 45.7 µM
MIC ([5]; 48 h, A. fumigatus F16216, visually, 1 × 10^5 cells/mL, 35° C.): 1.7 µg/mL and 2.5 µM
MIC ([5]; A. fumigatus AF293): 2.9 µM
MIC ([5]; A. fumigatus AF293, RPMI 1640 (0.2% Glucose), 1.00×10^5 cells/mL, 35° C.): 2 µg/mL
MIC ([5]; A. fumigatus AF293, RPMI 1640 (2% Glucose), 1.00×10^5 cells/mL, 35° C.): 1 µg/mL
MIC ([5]; A. fumigatus CEA10): 0.7 µM
MIC ([5]; A. fumigatus CEA10, RPMI 1640 (0.2% Glucose), 1.00×10^5 cells/mL, 35° C.): 0.5 µg/mL
MIC ([5]; A. fumigatus CEA10, RPMI 1640 (2% Glucose), 1.00×10^5 cells/mL, 35° C.): 0.5 µg/mL
MIC ([5]; A. fumigatus F11628): > 45.6 µM
MIC ([5]; A. fumigatus F11628, RPMI 1640 (0.2% Glucose), 1.00×10^5 cells/mL, 35° C.): > 32 µg/mL
MIC ([5]; A. fumigatus F11628, RPMI 1640 (2% Glucose), 1.00×10^5 cells/mL, 35° C.): > 32 µg/mL
MIC ([5]; A. fumigatus F16216): 2.5 µM
MIC ([5]; azole resistant strain F11628): > 45 µM
MIC ([5]; strain F16216): 2.5 µM
MIC [6]: 1.4 µM and 1 µg/mL
MIC ([6]; 48 h): 1 µg/mL and 1.4 µM
MIC [7]: ~1 µM (≈ 0.701 µg/mL)

CC1(C)S[C@@H]2[C@H](NC(=O)[C@H](N)c3ccccc3)C(=O)N2[C@H]1C(=O)O [Ampicillin]
P. carinii % reduction in ATP/vehicle control ([8]; 24 hour): 12.28%
P. carinii % reduction in ATP/vehicle control ([8]; 48 hr): 0%
P. carinii % reduction in ATP/vehicle control ([8]; 72 hr): 2.65%
P. murina % reduction in ATP/vehicle control ([9]; 24 hour): 0%
P. murina % reduction in ATP/vehicle control ([9]; 48 hr): 0.9%
P. murina % reduction in ATP/vehicle control ([9]; 72 hr): 0%

— US20180185408A1, “ANTIFUNGAL NYLON-3 POLYMERS AND COMBINATION THERAPY USING THEM TO TREAT FUNGAL INFECTIONS” (priority 2016, published 2018)
